Measured values as given in patent US5220042A, “1,4-benzoquinone derivatives and benzene derivatives, and process for preparing the same” (priority 1984, dated 1993).

Key:
5-lipoxygenase = biological target: T1, 5-lipoxygenase (Cavia porcellus, UniProt A0A286X958); assay: 5-Lipoxygenase inhibitory activity (conversion of 14C-arachidonic acid to 5-HETE) in guinea pig peritoneal exudate cells; type: cell-based, guinea pig (Hartley strain); conditions: read-out: inhibition ratio (%) of 5-lipoxygenase activity; for inhibition at 3 µM: concentration 3 × 10^-6 M; for inhibition at 0.3 µM: concentration 3 × 10^-7 M; for inhibition at 1 µM: concentration 10^-6 M; for inhibition at 0.1 µM: concentration 10^-7 M; for inhibition at 30 µM: concentration 3 × 10^-5 M; for inhibition at 10 µM: concentration 10^-5 M
T1 construct: endogenous in cells; host or cells: guinea pig (Hartley strain) casein-elicited peritoneal exudate cells, intact cell suspension
T1 sequence (A0A286X958 1-674): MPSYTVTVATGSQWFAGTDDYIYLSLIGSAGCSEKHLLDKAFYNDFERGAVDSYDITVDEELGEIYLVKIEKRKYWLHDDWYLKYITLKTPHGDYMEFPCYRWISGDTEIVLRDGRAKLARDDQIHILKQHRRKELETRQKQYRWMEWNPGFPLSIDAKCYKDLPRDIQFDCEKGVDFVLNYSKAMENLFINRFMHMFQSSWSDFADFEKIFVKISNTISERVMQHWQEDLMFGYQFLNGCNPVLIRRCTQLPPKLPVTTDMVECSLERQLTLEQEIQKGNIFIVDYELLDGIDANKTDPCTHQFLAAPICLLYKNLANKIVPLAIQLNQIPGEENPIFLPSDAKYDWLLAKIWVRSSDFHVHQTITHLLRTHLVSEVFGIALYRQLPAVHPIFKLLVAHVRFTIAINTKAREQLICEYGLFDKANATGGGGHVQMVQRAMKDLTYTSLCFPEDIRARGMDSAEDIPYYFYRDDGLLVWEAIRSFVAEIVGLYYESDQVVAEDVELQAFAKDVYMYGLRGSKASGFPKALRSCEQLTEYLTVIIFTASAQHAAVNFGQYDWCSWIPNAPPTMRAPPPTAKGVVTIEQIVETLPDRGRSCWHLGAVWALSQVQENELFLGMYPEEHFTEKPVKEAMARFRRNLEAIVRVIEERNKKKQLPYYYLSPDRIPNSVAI
Description: 5-Lipoxygenase inhibitory activity of the present compounds was determined by a method according to procedures described in "J. Biol. Chem., Vol. 256, pages 4156-4159, (1981, Ibid. Vol. 258, pages 5754-5758 (1983).
(1) Preparation of Test Cells
A guinea pig (Hartley strain) (500-650 g body weight) was intraperitoneally administered with 2%-casein solution in 3/50 the volume of body weight. 14 Hours after the administration, the animal was sacrificed by bleeding and the peritoneal cavity was washed with Dulbecco's phosphate buffered saline (PBS) containing 3 U/ml of heparin and the exudate cells were harvested. The sample of cells was washed twice with Dulbecco's PBS (-), then the cells were suspended in Dulbecco's PBS (-), containing 1 mM of calcium chloride and 5.5 mM of glucose, so as to make a suspension having the concentration of 2.5×10^7 cells/ml.
To 0.2 ml of the above-mentioned cell suspension was added 10^-5 M of Indomethacine, and incubated at 30° C. for 2 minutes. Each of the appropriate concentrations of test compounds was added to the suspension respectively, further incubated for 2 minutes. Next, 10 μm of Ionophore A23187 (manufactured by Calbiochem-Behring, San Diego, Calif., U. S. A) was added to the suspension, further, 10 μm of ^14 C-arachidonic acid (manufactured by Amersham Japan, Ltd., Tokyo, Japan) was added and initiated the reaction. 3 Minutes after the initiation of the reaction, 0.1 ml of 0.2M-citric acid was added so as to terminate the reaction. 1.2 Milliliters of ethyl acetate was added to the reaction mixture and shaked for 5 minutes. The reaction mixture was centrifuged at 3,000 rpm for 5 minutes so as to separate the organic layer from the aqueous layer. 1 Milliliter of the organic layer (the upper layer) was dehydrated by passing through a mini-column packed with anhydrous sodium sulfate. The dehydrated organic layer was dried under nitrogen gas stream. The residue obtained was dissolved in ethyl acetate, and the total amount of the ethyl acetate solution was spotted onto thin layer chromochromatography (TCL) plate (Art. 11845 manufactured by E. Merck A. G.). The TCL was carried out with a mixed solvent of diethyl ether:petroleum:ether:acetic acid (50:50:1 volume/volume), then the radioactive metabolites on the plate were detected by using "Ultrafilm ^3 H" (a trademark for a X-ray film, manufactured by LKB Co.). Each fractions corresponding to the metabolites was scraped in to a scintillation vial, and 5 ml of "Scintilator ACS-II" (manufactured by Amersham Japan, Ltd.), was added then the radio-activity was determined by means of a liquid scintillation counter.

[1] = system: SRS-A release from lung fragments; assay: Inhibition of SRS-A release from sensitized guinea pig lung fragments; type: cell-based, guinea pig (Hartley strain); conditions: Cavia porcellus, Table 2B, read-out: Inhibitory activities on SRS-A (%)
Description: Inhibitory activities on the release of SRS-A and histamine of the present compounds were determined.
A male guinea pig (Hartley strain) (body weight: about 300 g) was sensitized by a method according to P. Anderson: "Int. Archs. Allergey appln. Immunol., Vol. 64, pages 249-258 (1981). Thus, 30 mg/kg of cyclophosphamide was intraperitoneally administered to the guinea pig, and 2 days after 1 microgram of ovalbumin (manufactured by Sigma Chemical Co., St. Louis, Mo. U. S. A.) together with 10 mg of aluminium hydroxide gel were intraperitoneally administered so as to have the animal sesitized.
50 Days after the sesitization, the animal was killed by exsanguination, and the lung was isolated from the animal and was perfused with 20 ml of Tyrode's solution, then immersed in an ice-cooled Tyrode's solution. The parenchyma of the lung was cut by using McIlwain-type tissue chopper to make it into fragments of lung having 2 mm square and the fragments were washed with Tyrode's solution. 400 Milligrams of sectiles of lung were suspended in 3.6 ml of Tyrode's solution, and this suspension was preincubated at 37° C. for 5 minutes, then 4 microliters of dimethyl sulfoxide solution of the test compound, in the case of control 4 microliters of dimethyl sulfoxide alone was added to the suspension. 5 Minutes after, 0.4 ml of 100 micrograms/ml of ovalbumin solution added so as to release SRS-A for 10 minutes. The suspension was ice-cooled and filtered through gauze, the filtrate was centrifuged at 2,000 rpm for 10 minutes and the supernatant was collected. The supernatant was stored in freezed state at -80° C. until bio-assay was conducted.
Amounts of SRS-A and histamine contained in the supernatant were determined by bio-assay using ileum of guinea pig.
A piece of the ileum (2-3 cm of length) positioned from 15-25 cm from the opening portion of ileocecum was isolated from a male guinea pig (Hartley strain) (body weight: 400-600 g) which was fasted for 24 hours. The piece of ileum was hanged vertically in a Magnus tube which was filled with 10 ml of Tyrode's solution containing 10^-7 M of atropine sulfate under air stream conditions. The isotonic contraction of the piece of the ileum was measured at 0.5 g of load by using an isotonic transducer "TD-112S" (manufactured by Nihon Koden Co., Ltd.). The measurements were carried out after the reaction to histamine of the piece of ileum was kept constant. Bioassay of histamine was measured by using the value of contraction shown in 30 seconds after the addition of the supernatant. Bioassay of on SRS-A was measured by using the value of contraction shown at 2 minutes after the addition of the supernatant in the presence of 10^-6 M of pyrilamine (manufactured by Sigma Chemical Co.), and compared with the standard curve of crude SRS-A released from the fragments of the lung.

| SMILES | inhibition at 3 µM (5-lipoxygenase) | inhibition at 0.3 µM (5-lipoxygenase) | inhibition at 1 µM (5-lipoxygenase) | inhibition at 0.1 µM (5-lipoxygenase) | inhibition at 1 µM [1] | inhibition at 10 µM [1] | other results |
| --- | --- | --- | --- | --- | --- | --- | --- |
| COC1=CC(=O)C(O)=C(CCCCCC2=C(O)C(=O)C=C(OC)C2=O)C1=O [Test Compound No. 51, 2,2'-Pentamethylenebis(3-hydroxy-6-methoxy-1,4-benzoquinone)] |  |  |  |  | 11.8% | 60.8% |  |
| COC1=CC(=O)C(OC)=C(CCCOCCC2=C(OC)C(=O)C=C(OC)C2=O)C1=O [Test Compound No. 25, 2-(3,6-Dimethoxy-1,4-benzoquinon-2-yl)ethyl 3-(3,6-dimethoxy-1,4-benzoquinon-2-yl)propyl ether] |  |  |  |  | 52.4% | 94.4% |  |
| COC1=C(CCCCCC2=C(OC)C(=O)C(OC)=C(OC)C2=O)C(=O)C(OC)=C(OC)C1=O [Test Compound No. 54, 2,2'-Pentamethylenebis(3,5,6-trimethoxy-1,4-benzoquinone)] |  |  |  |  | 32% | 88.7% |  |
| COC1=CC(=O)C(OC)=C(CCCCCC2=C(OC)C(=O)C(OC)=C(OC)C2=O)C1=O [Test Compound No. 53, 2,3,5-Trimethoxy-6-[5-(2,5-dimethoxy-1,4-benzoquinon-3-yl)pentyl]-1,4-benzoquinone] |  |  |  |  | 50.8% | 94.9% |  |
| COC1=CC(=O)C(OC)=C(CCC2=C(OC)C(=O)C=C(OC)C2=O)C1=O [Test Compound No. 23, 2,2'-Ethylenebis(3,6-dimethoxy-1,4-benzoquinone)] |  |  |  |  |  |  | inhibition at 30 µM ([1]; 30 μM): 28.6% |
| CCCCC1=C(OC)C(=O)C(CCCCCC2=C(OC)C(=O)C=C(OC)C2=O)=C(OC)C1=O [Test Compound No. 38, 3-Butyl-2,5-dimethoxy-6-[5-(2,5-dimethoxy-1,4-benzoquinon-3-yl)pentyl]-1,4-benzoquinone] |  |  |  |  | 25.1% | 38.2% |  |
| COC1=C(CCCCCC2=C(OC)C(=O)C(SC)=C(OC)C2=O)C(=O)C(OC)=C(SC)C1=O [Test Compound No. 45, 2,2'-Pentamethylenebis(3,6-dimethoxy-5-methylthio-1,4-benzoquinone)] |  |  |  |  | 28.1% | 50.7% |  |

Further lines, with some results ahead:

| inhibition at 3 µM (5-lipoxygenase) | inhibition at 0.3 µM (5-lipoxygenase) | inhibition at 1 µM (5-lipoxygenase) | inhibition at 0.1 µM (5-lipoxygenase) | SMILES | inhibition at 1 µM [1] | inhibition at 10 µM [1] | other results |
| --- | --- | --- | --- | --- | --- | --- | --- |
| 80% | 28% | 70% | 24% | COC1=CC(=O)C(O)=C(CCCCCCC/C=C\CCCCCCCc2cc(O)cc(O)c2)C1=O [Test Compound No. 7, 1-(2-Hydroxy-5-methoxy-1,4-benzoquinon-3-yl)-16-(3,5-dihydroxyphenyl)-Z-8-hexadecene] |  |  |  |
| 95% | 44% | 86% | 4% | COC1=CC(=O)C(O)=C(CCCCCCC/C=C\CCCCCCCC2=C(O)C(=O)C(C)=C(OC)C2=O)C1=O [Test Compound No. 3, 1-(5-Methoxy-2-hydroxy-1,4-benzoquinon-3-yl)-16-(5-methoxy-2-hydroxy-6-methyl-1,4-benzoquinon-3-yl)-Z-8-hexadecene] |  |  | inhibition at 30 µM (5-lipoxygenase): 96%; inhibition at 10 µM (5-lipoxygenase): 97% |
|  | 22% | 67% | 10% | CCCC/C=C\CCCCCCCC1=C(O)C(=O)C=C(OC)C1=O [Test Compound No. 2, 5-Methoxy-2-hydroxy-3-(Z-8-tridecenyl)-1,4-benzoquinone] |  |  |  |
| 96% | 92% | 96% | 66% | COC1=CC(=O)C(O)=C(CCCCCCCC2OC2CCCCCCCC2=C(O)C(=O)C=C(OC)C2=O)C1=O (centres unmarked) [Test Compound No. 4, 1,16-bis(5-Methoxy-2-hydroxy-1,4-benzoquinon-3-yl)-8,9-epoxyhexadecane] |  |  |  |
|  | 29% | 58% | 7% | COC1=CC(=O)C(O)=C(CCCCCCC/C=C\CCCCCCCc2cc(O)c(C)c(O)c2)C1=O [Test Compound No. 6, 1-(2-Hydroxy-5-methoxy-1,4-benzoquinon-3-yl)-16-(4-methyl-3,5-dihydroxyphenyl)-Z-8-hexadecene] |  |  |  |
| 86% | 24% | 86% | 17% | COC1=CC(=O)C(OC)=C(CCCCCCCC2OC2CCCCCCCC2=C(OC)C(=O)C=C(OC)C2=O)C1=O (centres unmarked) [Test Compound No. 5, 1,16-(2,5-Dimethoxy-1,4-benzoquinon-3-yl)-8,9-epoxyhexadecane] |  |  |  |
| 40% |  | 12% |  | CCCCCCCCCCCCCC1=C(OC)C(=O)C=C(OC)C1=O [Test Compound No. 8, 2,5-Dimethoxy-3-tridecanyl-1,4-benzoquinone] |  |  | inhibition at 10 µM (5-lipoxygenase): 74% |
| 13% |  | 10% |  | CCCC/C=C\CCCCCCCCCC1=CC(=O)C=C(OC)C1=O [Test Compound No. 1, 5-Methoxy-3-(Z-10-pentadecenyl)-1,4-benzoquinone] |  |  | inhibition at 30 µM (5-lipoxygenase): 87%; inhibition at 10 µM (5-lipoxygenase): 81% |
